Tests used:
isolated myocytes = assay: Isolated myocyte simulated ischemia, osmotic fragility (trypan blue) index; assay type: cell-based, rabbit; settings: 10 μM fostriecin added at onset of ischemia, 120 min; untreated cells 14.3
Protocol: Isolated Myocytes: Rabbit hearts were mounted on a perfusion apparatus as described above and perfused with "high potassium/low calcium" perfusion buffer containing 125 mM NaCl, 30 mM KCl, 25 mM NaHCO3, 1.2 mM KH2 PO4, 1 mg/ml BSA, 1.2 mM MgCl2, 11 mM glucose, 0.68 mM 1-glutamine, and a complete amino acid solution (pH 7.4) for 5 minutes. Collagenase (Worthington Biochemical, Freehold, N.J.) was added at a concentration of 1.25 mg/ml and the heart was perfused for 45-60 minutes until it became soft. The heart was removed from the apparatus and minced in 5 mls of perfusion buffer containing 0.1% w/v BSA. […] Cell counts and viability were assessed by removing 10 μl aliquots, mixing with an equal volume of Tyrode's solution containing 1% trypan blue, and counting within 3-5 minutes by light microscopy. […]
To simulate ischemia, the suspension was divided into 4-6 conical Eppendorf tubes and each tube was spun lightly to form a 0.2-0.5 ml pellet of packed cells. […] Within 5 minutes, at least 300 cells were examined with an inverted stage microscope from multiple areas of the slide, and the numbers of rounded and rod-shaped cells and those stained with trypan blue recorded. […]
The percentage of stained (dead) cells was determined, and a plot of % dead cells vs. time was constructed. An index of non-survival was calculated as the area under the curve after 2 hours and presented as %-hr. […]

isolated rabbit hearts = assay: Controlled coronary occlusion in isolated perfused (Langendorff) rabbit hearts, infarct size as % of risk zone; settings: for infarct size, % of the risk zone: control 33%
Protocol: New Zealand white rabbits were anesthetized with intravenous sodium pentobarbital (30 mg/kg). The trachea was intubated and mechanical ventilation was achieved. After a left thoracotomy, a snare was passed around the coronary artery and the hearts were excised quickly, mounted on a Langendorff apparatus and perfused at 75 mm Hg pressure with non-recirculating Krebs buffer containing 118.5 mM NaCl, 4.7 mM KCl, 1.2 mM MgSO4, 1.2 mM KH2 PO4, 24.8 mM NaHCO3, 2.5 mM CaCl2, and 10 mM glucose. The Krebs buffer was gassed with 95% O2 /5% CO2 resulting in a pH of 7.4-7.5. The temperature of the perfusate was maintained at 37° C.
A fluid-filled latex balloon connected to a transducer with PE240 tubing was inserted into the left ventricle. The balloon volume was adjusted to set the left ventricular diastolic pressure equal to 5-10 mm Hg at the beginning of the experiment. Total coronary artery flow was measured by timed collection of perfusate dripping from the heart with a graduated cylinder.
The coronary artery was occluded for 30 minutes and reperfused for 2 hours. Fostriecin was mixed with oxygenated perfusate in a separate reservoir to a concentration of 1 μM. Treatment was begun by opening the line from the drug-laden reservoir and closing the line from the reservoir containing pure buffer. After 2 hours of reperfusion, the coronary artery was re-occluded, and 1-10 μm zinc cadmium sulfide fluorescent particles (Duke Scientific, Palo Alto, Calif.) were infused into the perfusate to demarcate the risk zone. The heart was removed, weighed, frozen, and cut into 2 mm thick slices. The slices were thawed and stained by incubation for 20 minutes at 37° C. in 1% triphenyltetrazolium chloride (TTC) in pH 7.4 buffer. The areas of infarct (TTC negative) and risk zone (non-fluorescent under ultraviolet light) were determined by planimetry. Infarct and risk zone volumes were calculated by multiplying each area by the slice thickness and summing the products. Infarct size for each heart was expressed as a percentage of the risk zone infarcted. In an untreated rabbit heart approximately 33% of the ischemic tissue infarcts in this model.
Employing the well-characterized rabbit model described herein in Example 1, a controlled coronary occlusion was employed to induce reproducibly myocardial infarctions in isolated hearts. Defining the risk zone as the tissue normally supplied with oxygenated blood by the coronary artery before it is occluded, a 30 minute coronary occlusion produces an infarction that averages 33% of the risk zone (see data for control rabbits; FIG. 1). When the isolated hearts were treated with 1 μM fostriecin administered 15 minutes prior to the onset of ischemia and present during the 30 minute ischemic period, a significant decrease in infarct size to 9% of the risk zone was obtained (FIG. 1). This level of protection is equivalent to that seen in ischemic preconditioning (see Cohen M. V., et al., Cardiol. Rev. 3(3):137-49 (1995)), and represents a substantial decrease in the amount of myocardial tissue damaged.
Since the onset of a myocardial infarction usually cannot be predicted, a compound that provides protection when administered after the onset of ischemia is clinically far more useful than a compound that is effective only if administered before the coronary occlusion. […] The addition of 10 μM fostriecin 10 minutes after the onset of ischemia decreased infarction size to 19% of the risk zone. […]

[1] = system: a variety of protein kinases; assay: Effect on protein kinases; assay type: biochemical

## CC(O)(/C=C/C1CC=CC(=O)O1)C(CC(O)\C=C/C=C\C=C\CO)OP(=O)(O)O (stereo not shown) [fostriecin]
Isolated myocytes
  cell fragility index, area under the % trypan blue-positive cells vs time curve: 10.6 %.cndot.hr
Isolated rabbit hearts; 1 μM fostriecin from 15 minutes prior to ischemia and during 30-minute coronary occlusion
  infarct size, % of the risk zone: 9 % of the risk zone
Isolated rabbit hearts; 10 μM fostriecin added 10 minutes after onset of 30-minute ischemia
  infarct size, % of the risk zone: 19 % of the risk zone
Isolated rabbit hearts; Oryctolagus cuniculus, 10 min, 10 μM fostriecin added 10 minutes after onset of ischemia, read-out: infarction smaller than in untreated hearts
  inhibition at 10 µM: 43%
Isolated rabbit hearts; isolated rabbit heart perfused with 1 μM fostriecin
  hemodynamic effects: No hemodynamic effects were observed
Isolated rabbit hearts; perfused rabbit hearts
  concentration found to provide protection: 1 to 10 µM
[1]
  effect on a variety of protein kinases: no effect

From patent US5914242A, “Method for diminishing myocardial infarction using protein phosphatase inhibitors” (priority 1997, dated 1999)
